In ChEMBL document CHEMBL4311933, “Biochemical and microbiological evaluation of N-aryl urea derivatives against mycobacteria and mycobacterial hydrolases” (Medchemcomm, 2019):
In brackets after ≈: the same amount, converted by molar mass. Activity calls are given as the source filed them. No cut-off for these calls is given here.

Columns and labels:
[1] = target: T1, Carboxylesterase/lipase Culp6 (Mycobacterium tuberculosis (strain ATCC 25618 / H37Rv), UniProt O53581); experiment: (§1) Inhibition of recombinant Mycobacterium tuberculosis H37Rv ATCC 25618 Rv3802c expressed in Escherichia coli T7 assessed as residual activity by measuring hydrolysis of resorufin butyrate at 200 uM using resorufin butyrate as substrate preincubated for 15 mins followed by substrate addition by relative to control; details: read-out: Activity
T1 sequence (O53581 whole entry): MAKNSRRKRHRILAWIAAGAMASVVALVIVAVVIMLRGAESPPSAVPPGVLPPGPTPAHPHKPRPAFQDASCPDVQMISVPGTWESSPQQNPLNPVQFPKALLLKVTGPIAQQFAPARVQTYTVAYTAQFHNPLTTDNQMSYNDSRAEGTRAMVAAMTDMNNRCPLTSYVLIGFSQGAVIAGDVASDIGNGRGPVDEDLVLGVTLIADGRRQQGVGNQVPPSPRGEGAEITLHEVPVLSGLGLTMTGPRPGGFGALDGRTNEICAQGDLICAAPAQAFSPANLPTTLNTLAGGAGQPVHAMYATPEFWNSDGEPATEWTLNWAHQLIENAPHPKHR

[2] = test system: Mycobacterium tuberculosis H37Rv; experiment: as §1, with “ATCC 25618 mycolyltransferase expressed in” for “ATCC 25618 Rv3802c expressed in”, “addition by fluorimetric assay relative to” for “addition by relative to”
[3] = target: T1, Carboxylesterase/lipase Culp6; experiment: as §1, with “500” for “200”, “addition” for “addition by”; details: for activity at 500 µM: read-out: Activity
[4] = test system: Mycobacterium tuberculosis H37Rv; experiment: Inhibition of recombinant Mycobacterium tuberculosis H37Rv ATCC 25618 mycolyltransferase expressed in Escherichia coli T7 at 500 uM using resorufin butyrate as substrate preincubated for 15 mins followed by substrate addition by fluorimetric assay
[5] = test system: Mycobacterium tuberculosis; experiment: Antimycobacterial activity against Mycobacterium tuberculosis H37Rv mc2 6206 after 7 days by resazurin microtiter assay; assay type: functional; details: H37Rv mc2 6206, 168 h
[6] = test system: Mycobacterium tuberculosis; experiment: Antimycobacterial activity against Mycobacterium tuberculosis H37Ra ATCC 25177 after 7 days by resazurin microtiter assay; assay type: functional; details: H37Ra ATCC 25177, 168 h
[7] = test system: Mycobacteroides abscessus; experiment: Antimycobacterial activity against Mycobacterium abscessus ATCC 19977 after 7 days by resazurin microtiter assay; assay type: functional; details: ATCC 19977, 168 h
[8] = test system: Mycolicibacterium smegmatis; experiment: Antimycobacterial activity against Mycobacterium smegmatis mc2 155 after 7 days by resazurin microtiter assay; assay type: functional; details: MC2 155, 168 h
L929 = experiment: Cytotoxicity against murine L929 assessed as reduction in cell viability after 24 hrs by MTT assay; assay type: cell-based; details: Mus musculus, L929, 24 h
[9] = Selectivity index, ratio of IC50 for murine L929 cells to MIC for Mycobacterium tuberculosis H37Rv mc2 6206; assay type: toxicity; details: mouse, read-out: Selectivity Index
[10] = Selectivity index, ratio of IC50 for murine L929 cells to MIC for Mycobacterium tuberculosis H37Ra ATCC 25177; assay type: toxicity; details: mouse, read-out: Selectivity Index
[11] = target: T1, Carboxylesterase/lipase Culp6; experiment: Inhibition of recombinant Mycobacterium tuberculosis H37Rv ATCC 25618 Rv3802c cutinase expressed in Escherichia coli T7 at 500 uM using resorufin butyrate as substrate preincubated for 15 mins followed by substrate addition relative to control
[12] = target: T1, Carboxylesterase/lipase Culp6; experiment: Inhibition of recombinant Mycobacterium tuberculosis H37Rv ATCC 25618 Rv3802c cutinase expressed in Escherichia coli T7 assessed as inhibition constant using resorufin butyrate as substrate preincubated for 15 mins followed by substrate addition

| Compound | activity at 200 µM [1] | activity at 500 µM [3] | inhibition [4] | other results |
| --- | --- | --- | --- | --- |
| O=C(Nc1cc(F)cc(F)c1)N(Cc1ccco1)Cc1ccco1 | 100% |  |  |  |
| O=C(NCc1ccco1)n1nnc2ccccc21 | 44% |  |  | Activity [2]: 80% |
| O=C(Nc1ccccc1)N1CCCCC1 |  | 43% | inactive |  |
| O=C(NCC1CCCCC1)Nc1cc(F)cc(F)c1 |  | 72.5% |  | MIC [5]: 3.12 µM (≈ 0.837 µg/mL); MIC [6]: 25 µM (≈ 6.71 µg/mL); MIC [7]: 25 µM (≈ 6.71 µg/mL); MIC [8]: 62.5 µM (≈ 16.8 µg/mL); IC50 (L929): 70 µM; selectivity ratio [9]: > 20; selectivity ratio [10]: > 20 |
| CSc1nncn1C(=O)NCC1CCCCC1 | 40% |  |  |  |
| O=C(NCc1ccco1)Nc1ccccc1 |  | 38.2% | inactive |  |
| O=C(NCC1CCCCC1)Nc1ccc(F)cc1 |  | 66% |  |  |
| O=C(Nc1ccccc1)NC1CCCC1 |  | 56.2% | inactive |  |
| O=C(NCC1CCCCC1)n1nnc2ccccc21 | 43% |  |  |  |
| O=C(NCc1cccs1)Nc1ccccc1 |  | 50.5% | inactive |  |
| O=C(NCc1ncc[nH]1)Nc1cc(F)cc(F)c1 | 100% |  |  |  |
| O=C(NCCc1ccccc1)Nc1ccccc1 |  | 73.1% | inactive |  |
| O=C(NCC1CCCCC1)Nc1ccccc1 |  | 53% | inactive |  |
| O=C(NCc1ccco1)n1ccnn1 | 72.5% |  |  | Activity [2]: 14% |
| O=C(Nc1ccccc1)NC1CCCCC1 |  | 84.3% | inactive |  |
| O=C(NCC1CCCCC1)Nc1ccc(Br)cc1 |  | 100% |  |  |
| O=C(NCc1ccco1)Nc1cc(F)cc(F)c1 |  | 13% |  | inhibition at 500 µM [11]: 88%; Ki [12]: 5.2 µM |
| O=C(NCc1nc2ccccc2[nH]1)Nc1cc(F)cc(F)c1 | 20% |  |  |  |
| O=C(NCC1CCCCC1)Nc1ccc([N+](=O)[O-])cc1 |  |  |  | Activity ([3]; 500 µM): Active; MIC [5]: 3.12 µM (≈ 0.865 µg/mL); MIC [6]: 25 µM (≈ 6.93 µg/mL); MIC [7]: > 100 µM; MIC [8]: 15.6 µM (≈ 4.33 µg/mL); IC50 (L929): 57 µM; selectivity ratio [9]: > 20; selectivity ratio [10]: > 20 |
| O=C(NCc1ccco1)Nc1ccc(C(F)(F)F)cc1 |  | 82% |  |  |
| O=C(NCc1ccco1)Nc1ccc(F)cc1 |  | 54.9% |  |  |
| O=C(Nc1cc(F)cc(F)c1)N(Cc1ccc(F)cc1)Cc1ccco1 | 100% |  |  |  |
| O=C(NCC1CCCCC1)Nc1ccc(C(F)(F)F)cc1 |  | 83.6% |  | MIC [5]: 1.5 µM (≈ 0.45 µg/mL); MIC [6]: 12.5 µM (≈ 3.75 µg/mL); MIC [7]: > 100 µM; MIC [8]: > 100 µM; IC50 (L929): 56 µM; selectivity ratio [9]: > 20; selectivity ratio [10]: > 20 |
